# Assay results: patent US8093288B2, “Genipin derivatives and uses thereof” (Beth Israel Deaconess Medical Center, priority 2003, dated 2012)
# Key:
# UCP2 = biological target: T1, UCP2 (Mus musculus, UniProt P70406); test: Proton leak titration in isolated kidney mitochondria of wildtype mice with superoxide-generating system; format: biochemical; settings: 50 μM genipin with 50 mM xanthine and 0.2 mU/3.5 mL xanthine oxidase, FIG. 2
# T1 construct: Wildtype and UCP2 knockout mice were used for isolation of kidney mitochondria; from tissue; host or cells: kidney mitochondria of wildtype mice
# T1 sequence (P70406 1-309): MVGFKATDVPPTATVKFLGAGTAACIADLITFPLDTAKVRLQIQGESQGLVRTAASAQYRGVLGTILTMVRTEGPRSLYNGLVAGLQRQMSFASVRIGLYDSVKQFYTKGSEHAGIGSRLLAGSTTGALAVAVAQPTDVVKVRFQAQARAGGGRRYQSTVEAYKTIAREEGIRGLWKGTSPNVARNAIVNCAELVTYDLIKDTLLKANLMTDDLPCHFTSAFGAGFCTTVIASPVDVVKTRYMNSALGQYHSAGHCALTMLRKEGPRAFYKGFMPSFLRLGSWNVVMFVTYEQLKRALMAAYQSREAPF
# WT islets = test: Glucose-stimulated insulin secretion in WT islets after chronic hyperglycemia; format: cell-based, mice; settings: WT islets after 72 hours at 25 mM glucose; 5 μM genipin acutely added; 5.5, 12.5, 25 mM glucose; FIG. 12A
# Protocol: (§1) Pancreatic islets were isolated from WT (FIG. 12A) or UCP2 KO mice (FIG. 12B) and subjected to chronic incubations at low (5.5 mM) and high glucose (25 mM). In a separate experiment, islets were isolated from ob/ob mice (FIG. 12C). Islets were incubated for a total of 72 hours and washed, and then insulin-secretion studies were performed using three different concentrations of glucose (5.5, 12.5, and 25 mM) with or without 5 μM genipin. Results are means±SEM of four independent experiments (FIGS. 12A and 12B) or eight to twenty repeats of one representative experiment (FIG. 12C). WT islets that were chronically incubated at low glucose released increasing amounts of insulin in response to increasing concentrations of glucose (FIG. 12A, left panel). Following chronic hyperglycemia, islets increased basal insulin release, but were completely unresponsive to glucose stimulation (FIG. 12A, middle panel). […] To assess the role of genipin in hyperglycemia-induced loss of glucose responsiveness, genipin was acutely added into islets during the insulin-release phase of the study.
# ob/ob islets = test: Glucose-stimulated insulin secretion in islets from ob/ob mice; format: cell-based; settings: 5 μM genipin acutely added, FIG. 12C
# Protocol: as §1, with “study. […] Insulin secretion in islets from ob/ob mice and ob/ob mice lacking UCP2 with or without genipin was also studied. It has been reported that in ob/ob islets, UCP2 expression levels are increased compared to WT islets. […]” for “study.”
smiles,measurement,setting,value
COC(=O)C1=CO[C@@H](O)[C@@H]2C(CO)=CC[C@H]12 [genipin],rate of proton leak as a function of mitochondrial membrane potential,UCP2,proton leak occurred at nearly the same mitochondria membrane potential as in the control
same,glucose-stimulated insulin secretion (GSIS),WT islets,prevented the hyperglycemia-induced block in GSIS
same,glucose sensing (glucose-stimulated insulin secretion),ob/ob islets,restored glucose sensing
